In patent publication US20110028554A1, “PHARMACEUTICAL COMPOSITIONS COMPRISING DIIODOTHYRONINE AND THEIR THERAPEUTIC USE” (UNIVERSITE JOSEPH FOURIER, priority 2007, published 2011):

Key:
[1] = Body weight and food intake of Zucker rats; assay type: in vivo; settings: Zucker (Fa/Fa) rats, 30 days, FIG. 8 legend high dosage 25 μg/100 g BW
Protocol: (§1) Adult male rat bred in the animal room facilities of Laboratory of Fundamental and Applied. Bioenergetics (Wistar strain) or purchased from Charles-River Laboratories, Domaine des oncins, L'ARBRESLE France [(genetically obese normoglycemic (Zucker or Fa/Fa) or diabetic (ZDF)] were caged individually in stainless steel hanging cages and maintained in a 22° C., 50±10% relative humidity and 12 h:12 h light:dark environment. All animals were fed ad libitum with a standard rat chow (Safe A04, Villemoisson, France) and tap water. Body mass and food intake were recorded twice/thrice a week and fresh food was provided, at the same time to ensure minimal disturbance to the animals' food, behavior.
Eight-week old rats (300 g±10 g) were anesthetized by simultaneous intraperitoneal injection of diazepam 4 mg/kg and ketamine 100 mg/kg. In order to maintain body temperature during the surgery (10 min), animals were placed on a warm blanket. After interscapular shaving, a small incision of 0.5 cm of the skin allows the subcutaneous implantation of a small pellet (containing rT3 or 3′,3-T2) with a 10-gauge precision trochar. The pellets, manufactured by Innovative Research of America (Sarasota, Fla., USA) are constituted of a biodegradable matrix that effectively and continuously release the active product in the animal. […]

[2] = Body composition of genetically obese Zucker rats; assay type: in vivo, Zucker (Fa/Fa) rats; settings: FIG. 9, high dosage 25 μg/100 g BW
From the text: At the end of the experimental period, animals were sacrificed by decapitation, in order to avoid the well-known effects of general anesthetics on mitochondrial metabolism. Blood, samples were immediately collected and plasma was frozen for subsequent determination of serum metabolites and hormones. Liver, muscles and fat depots were quickly excised and weighed. Liver median lobe was rapidly freeze-clamped. Muscles (plantaris, soleus and gastrocnemius) were frozen in isopentane precooled in liquid nitrogen. Mesenteric fat consisted, of adipose tissue surrounding the gastro-intestinal tract from the gastro-oesophageal sphincter to the end of the rectum with special care taken in distinguishing and removing the pancreas. Retroperitoneal fat pad was taken as the distinct depot behind each kidney along the lumbar muscles. Epididymal fat consisted, of adipose tissue on top of the epididymis. For subcutaneous depot measurement, a rectangular piece of skin was taken on the right side of each animal from the median line of the abdomen between the spine and the right hip to the first rib. Interscapular brown adipose tissue was removed and dissected free from adjacent muscles and white adipose tissue. The heart ventricles, the right kidney and the spleen were also excised, weighed and frozen.

[3] = Food intake of Wistar rats; assay type: in vivo
Protocol: as §1
Eight-week old rats (300 g±10 g) were anesthetized by simultaneous intraperitoneal injection of diazepam 4 mg/kg and ketamine 100 mg/kg. In order to maintain body temperature during the surgery (10 min), animals were placed on a warm blanket. After interscapular shaving, a small incision of 0.5 cm of the skin allows the subcutaneous implantation of a small pellet (containing rT3 or 3′,3-T2) with a 10-gauge precision trochar. The pellets, manufactured by Innovative Research of America (Sarasota, Fla., USA) are constituted of a biodegradable matrix that effectively and continuously release the active product in the animal.
3-5 diiodothyronine (3-5 T2) or 3-3′diiodothyronine (3-3′ T2) were used at different doses (5, 0.5, or 0.1 mg/pellet) were implanted in order to provide a continuous and constant drug delivery over 60 days (which represents 25 μg, 2.5 μg or 0.5 μg/day/100 g BW).

[4] = test system: liver mitochondria; assay: Oxidative phosphorylation efficiency (ATP/O) in liver mitochondria of treated Wistar rats; assay type: in vivo; settings: 3 weeks continuous subcutaneous 250 μg/kg, fatty acids (palmitoyl-, octanoyl-) and succinate as substrates
Protocol: Effect of 3,5-T2 on oxidative phosphorylation efficiency investigated in liver mitochondria of Wistar rats isolated after 3 weeks of continuous treatment administered subcutaneously (250 μg/kg).
FIGS. 20A, 20B, 20C and 20D represent the ratio between ATP synthesis (nmol/min/g prot) and liver mitochondrial oxygen consumption (nmol/min/g prot) (P/O) as a function of liver mitochondrial oxygen consumption.
All measurements were performed using mitochondria (1.0 mg mitochondrial protein/ml) incubated with various substrates: • GM: glutamate/malate (5 mM/2.5 mM) • Palm: palmitoyl carnitine (55 μM) • Octa: octanoyl carnitine (100 μM) and • Succ+Rot: succinate/rotenone (5 mM/5 μM)
ATP/O ratios with 5 mM glutamate/2.5 mM malate/5 mM succinate or octanoyl-carnitine (100 μM) as respiratory substrates were determined from the ATP synthesis rate (JATP) versus respiratory rate JO2 with an ADP regenerating system based, on hexokinase (EC 2.7.1.1) plus glucose. JATP and JO2 were measured as described above in a medium containing 125 mM KCl, 1 mM EGTA, 5 mM Tris-Pi, 20 mM Tris-HCl, 0.1% fat free BSA (pH 7.2). JATP was determined from glucose 6-phosphate formation in presence of 20 mM glucose, 1 mM MgCl2, and 125 μM ATP. JO2 and JATP were modulated by addition of increasing concentrations of hexokinase (Nogueira et al, J Bioenerg Biomemb., 34:55-66, 2002).

[5] = normal rats, high-fat diet, daily peritoneal injection; cited from earlier work

SMILES: N[C@@H](Cc1cc(I)c(Oc2ccc(O)cc2)c(I)c1)C(=O)O [3,5-T2, 3,5-diiodothyronine]
- Food intake vs placebo [1]: significantly lower as compared to placebo
- Animal growth (body weight) vs placebo ([1]; text says low 3,5-T2 group): no significant growth
- Absolute values of fat deposit, all localizations, vs placebo [2]: significantly lower
- Brown adipose tissue vs placebo [2]: significantly increased
- Muscle mass vs placebo [2]: not affected
- Food intake vs placebo ([3]; high dosage 25 μg/100 g BW): a clear increase was observed
- Food intake vs placebo ([3]; low dosage 2.5 μg/100 g BW): almost not affect
- Efficiency of oxidative phosphorylation (ATP/oxygen ratio) [4]: lowers the yield of ATP synthesis
- Fat deposit vs untreated rats [5]: less fat deposit
- Weight gain vs untreated rats [5]: gained less weight
